Source: patent publication US20210177982A1, “MUCUS-PENETRATING PEPTIDES, DELIVERY VEHICLES AND METHODS OF THERAPY” (DNALite Therapeutics, Inc., priority 2018, published 2021)

Legend:
[1] = 25° C., RP-HPLC, Ac-X-G-A-K-G-A-G-V-G L-amide; cited from earlier work
[2] = pH 7 (No salt); cited from earlier work
[3] = In-vivo distribution assay (intrarectal, colon cryosections, epifluorescence); parameters: species or system BALB/c female mice; conditions: peptide-coupled DiI/DiO lipid nanoparticle, 30 μg DNA intrarectally, colon after 4 hours, compared to base lipid nanoparticle
Description: Three separate lipid nanoparticle formulations were prepared, one coupled to SEQ ID NO: 29, another coupled to transactivator of transcription peptide (TAT; SEQ ID NO:37) and the last without any coupling, all carried plasmid DNA and included 0.5% mol DiI and DiO labeling. 30 μg of DNA encapsulated in the DiI/DiO lipid nanoparticle are dosed intrarectally in BALB/c female mice (Charles River Laboratory, MA) anesthetized under 1-3% isofluorane. After 4 hours, the mice are euthanized under 25% CO2 and the colon is removed and embedded in optimal cutting temperature (OCT) media. The OCT media sections are flash frozen at −80 degrees Celsius and intestinal sections are taken in a cryostat. Epifluorescence images are taken of crypts under 531 nm excitation with 593 nm emission and overlaid with brightfield illumination. FIGS. 32A-32B.

[4] = target: T1, Poliovirus Receptor (Homo sapiens, UniProt P15151); conditions: cited from earlier work
T1 sequence (P15151 21-417): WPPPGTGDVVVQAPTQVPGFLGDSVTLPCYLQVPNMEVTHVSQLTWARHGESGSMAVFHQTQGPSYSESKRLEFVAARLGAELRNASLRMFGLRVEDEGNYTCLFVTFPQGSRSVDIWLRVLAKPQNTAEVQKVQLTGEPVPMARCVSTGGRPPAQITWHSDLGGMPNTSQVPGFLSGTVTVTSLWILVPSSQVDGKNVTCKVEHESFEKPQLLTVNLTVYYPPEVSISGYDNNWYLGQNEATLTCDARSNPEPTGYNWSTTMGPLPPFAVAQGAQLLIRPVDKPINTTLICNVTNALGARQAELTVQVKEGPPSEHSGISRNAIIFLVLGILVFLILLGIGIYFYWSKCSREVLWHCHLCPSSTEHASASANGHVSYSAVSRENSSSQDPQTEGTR

| Compound | ΔtR(Gly), pH 2, 20 mM H3PO4 [1] | ΔtR(Gly), pH 2, 20 mM TFA [1] | ΔtR(Gly), pH 5, 10 mM PO4 Buffer [1] | ΔtR(Gly), pH 7, 10 mM PO4 Buffer +50 mM NaCl [1] | ΔtR(Gly), pH 7, 10 mM PO4 Buffer +50 mM NaClO4 [1] | ΔtR(Gly), pH 7, 10 mM PO4 Buffer, No Salt [1] | Fauchere Score [2] | distribution of the particle at the surface of the intestinal epithelial cells [3] | interaction with the Poliovirus Receptor [4] |
| --- | --- | --- | --- | --- | --- | --- | --- | --- | --- |
| O=C(O)[C@@H]1CCCN1 [Pro] | 9.4 | 9.0 | 9.4 | 10.4 | 9.9 | 9.7 | 0.720 |  |  |
| C[C@@H](O)[C@H](N)C(=O)O [Thr] | 2.8 | 2.3 | 2.8 | 4.1 | 2.5 | 3.9 | 0.260 |  |  |
| N[C@@H](Cc1c[nH]c2ccccc12)C(=O)O [Trp] | 32.3 | 32.4 | 33.2 | 33.0 | 33.7 | 32.9 | 2.250 |  |  |
| N[C@@H](Cc1ccc(O)cc1)C(=O)O [Tyr] | 15.4 | 14.7 | 15.2 | 16.0 | 15.1 | 15.4 | 0.960 |  |  |
| CC(C)[C@H](N)C(=O)O [Val] | 13.8 | 13.4 | 14.0 | 15.0 | 14.6 | 14.4 | 1.220 |  |  |
| GRKKRRQRRRPQ (Human immunodeficiency virus) [SEQ ID NO. 37] |  |  |  |  |  |  |  | reduced the distribution of the particle at the surface of the intestinal epithelial cells |  |
| TVDNPASTTNKDKLFAV [SEQ ID NO. 28] |  |  |  |  |  |  |  |  | has been shown to interact with the Poliovirus Receptor |
